# US5871937A, “Acute phase protein modulating endotoxic activity of lipopolysaccharides, assay methods and polypeptides” (priority 1997, dated 1999)
# Like-named read-outs stand apart in the source and are kept apart here.
# B1: rabbit CRP: rabbit C-reactive protein (protein, UniProt P02742 21-225, looked up)
# C-reactive protein: AGMHKKAFVFPKESDNSYVSLNAQLKKPLKAFTVCLYFYTDLSMTRGYSIFSYATRRQFNEILLFWSKDIGYSFSVGGDEIIFKVSDIPVDPTHLCASWESSTGIAELWVDGKPMVRKSLKKGYILGPEASIILGQDQDSFGGSFEKQQSLVGDIGNVNMWDYALSPEEINTIYAGGTFSPNVLDWRELTYQVRGEVHVKPQLWP
# B2: BPI: bactericidal/permeability increasing protein, a product of neutrophils (protein, UniProt P17213 32-487, looked up)
# Bactericidal …: VNPGVVVRISQKGLDYASQQGTAALQKELKRIKIPDYSDSFKIKHLGKGHYSFYSMDIREFQLPSSQISMVPNVGLKFSISNANIKISGKWKAQKRFLKMSGNFDLSIEGMSISADLKLGSNPTSGKPTITCSSCSSHINSVHVHISKSKVGWLIQLFHKKIESALRNKMNSQVCEKVTNSVSSELQPYFQTLPVMTKIDSVAGINYGLVAPPATTAETLDVQMKGEFYSENHHNPPPFAPPVMEFPAAHDRMVYLGLSDYFFNTAGLVYQEAGVLKMTLRDDMIPKESKFRLTTKFFGTFLPEVAKKFPNMKIQIHVSASTPPHLSVQPTGLTFYPAVDVQAFAVLPNSSLASLFLIGMHTTGSMEVSAESNRLVGELKLDRLLLELKHSNIGPFPVELLQDIMNYIVPILVLPRVNEKLQKGFPLPTPARVQLYNVVLQPHQNFLLFGADVVYK
# B3: LBP: acute phase glycoprotein of about 60 kD that binds LPS and retards its binding to HDL (protein, UniProt P17454 27-482, looked up)
# Lipopolysaccharide-binding …: TNPGLITRITDKGLEYAAREGLLALQRKLLEVTLPDSDGDFRIKHFGRAQYKFYSLKIPRFELLRGTLRPLPGQGLSLDISDAYIHVRGSWKVRKAFLRLKNSFDLYVKGLTISVHLVLGSESSGRPTVTTSSCSSDIQNVELDIEGDLEELLNLLQSQIDARLREVLESKICRQIEEAVTAHLQPYLQTLPVTTQIDSFAGIDYSLMEAPRATAGMLDVMFKGEIFPLDHRSPVDFLAPAMNLPEAHSRMVYFSISDYVFNTASLAYHKSGYWNFSITDAMVPADLNIRRTTKSFRPFVPLLANLYPNMNLELQGTVNSEQLVNLSTENLLEEPEMDIEALVVLPSSAREPVFRLGVATNVSATLTLNTRKITGFLKPGRLQVELKESKVGGFNVELLEALLNYYILNNLYPKVNEKLAHRFPLPLLRHIQLYDLLLQTHENFLLVGANIQYRRV
# What was measured:
# purified lapine LBP [1] = target: T1, purified lapine LBP (Oryctolagus cuniculus, UniProt P17454); assay: Microtiter binding assay: inhibition of LBP binding to Re595 LPS-coated plates; design: species or system rabbit; conditions: for IC50: read-out: ED50 (the source's name) (converted); for Inhibition of LBP binding to LPS plate, in words: qualitative analysis of Table IV
# T1 construct: the mature secreted protein present in impure form in acute phase sera; from tissue; host or cells: acute phase rabbit serum (silver nitrate induced), Bio-Rex 70 and Mono-Q columns
# Source text: (§1) The binding of purified lapine LBP to LPS immobilized on plastic microtiter plates has also been examined. The presence of LBP bound to LPS was detected with goat anti-rabbit LBP and peroxidase conjugated rabbit anti-goat IgG.
# The data from these studies are shown in Table IV, below, where the numerical results are the concentrations necessary to reduce the binding of 1 microgram (ug)/ml LBP to the plate by 50 percent; i.e., ED50. It is noted that in some instances, the structure of the inhibitor is either not fully defined or the inhibitor is heterogeneous, thereby preventing a calculation of a molar concentration for ED50.
# (§2) Microtiter plates were coated with LPS by incubating 100 ul/well of 30 ug/ml Re595 LPS in 0.1M Na2 Co3, 20 mM EDTA, pH 9.6 for 3 hours at 37°. The LPS solution was flicked out, the plates rinsed thoroughly under running water and air dried overnight. The binding properties of the dried, LPS-coated plates remain unchanged for up to eight weeks. Excess binding sites were then blocked with 200 ul/well of 10 mg/ml BSA in 50 mM HEPES, 0.15M NaCl, pH 7.4 (HS buffer) for 30 minutes at 37° temperature with agitation, after which the BSA solution was flicked out.
# LBP samples, APRS, or NRS were added in a total volume of 100 ul/well diluted in 1 mg/ml BSA in HS buffer. Binding of LBP was allowed to occur for 3 hours at 37°. The plate was then rinsed 3 times with 200 ul/well of 1 mg/ml BSA in HS buffer with agitation over a 10 minute interval.
# Goat anti-LBP serum, 100 ul/well, diluted 2000 times in 1 mg/ml BSA in HS buffer was then incubated in the wells for 2 hours at 37°. The anti-LBP antiserum was then rinsed out as above and replaced for 1 hour at room temperature with 100 ul/well of peroxidase conjugated rabbit anti-goat IgG diluted 2500 times in 1 mg/ml BSA.
# (§3) Finally, 100 ul/well o-phenylenediamine solution (4 mM o-phenylenediamine, 2.3 mM H2 O2, 50 mM citric acid, 133 mM Na2 HPO4, pH 5.0) were added and the resulting composition maintained until sufficient color had developed (5-15 minutes). The reaction was stopped by addition of 100 ul/well 5M H2 SO4 and the absorbance at 490 nm of each well was quantitated in a microtiter plate reader. Mean absorbances and standard errors of the means were calculated from 4-8 replicates of each well.
# Inhibition of LBP binding to the plate was studied by premixing the compound under study at the desired concentration with 1 ug/ml purified LBP for 10 minutes at 37° before adding the mixture to the microtiter plate.
# purified lapine LBP [2] = target: T1, purified lapine LBP; assay: Binding of purified lapine LBP to LPS types and lipid A partial structures (microtiter plate); conditions: detected with goat anti-rabbit LBP and peroxidase conjugated rabbit anti-goat IgG
# Method: as §1
# (§4) Binding affinities of LBP for LPS are near 10^9 m^-1.
# as §2, with “out. […]” for “out.”
# as §3
# [3] = NRS reconstitution assay for LBP activity (C1.3 formation, retardation of LPS binding to HDL); type: biochemical, rabbit; conditions: added to NRS
# Method: Two examples of the NRS reconstitution assay for lipopolysaccharide binding protein (LBP) activity in the lapine (rabbit) system are shown in FIG. 5. In control studies, no systematic dependence on the assay results were observed when smaller total assay volumes; i.e., 0.5 or 0.25 ml rather than the standrard 1 ml, were used.
# The basic method used during development of the purification procedure for LBP was a reconstitution assay in which fractions of acute phase serum were assayed for their ability to reconstitute "acute phase behavior" in NRS. The screening assay used was to mix a sample of the material to be tested with 1.0 ml of NRS at 37 degrees C. for 30 minutes. LPS and EDTA were then added to the concentrations given above, and the LPS-HDL binding reaction was allowed to proceed for ten minutes at 37 degrees before addition of CsCl and centrifugation. The 10 minute reaction time was chosen as a compromise between the times required for LPS to bind to HDL in NRS and APRS. […]
# To quantitate LBP activity in purified fractions of APRS, the reconstitution assay just described was performed with a series of different amounts of the sample being assayed up to a maximum of 200 ul per ml NRS. After centrifugation and quantitation of the LPS in C1.3, a plot of percent LPS as C1.3 versus sample volume was made. […]
# Gram-negative bacteria = conditions: similar conditions for LBP and BPI; cited from earlier work
# [4] = Binding affinity of LBP for LPS; conditions: association constant
# Source text: as §1, §4
# [5] = concentration necessary to reduce the binding of 1 ug/ml LBP to the Re595 LPS-coated plate by 50 percent
# [6] = concentration necessary to reduce the binding of 1 ug/ml LBP to the plate by 50 percent
Molecule,ED50 (purified lapine LBP [1]; [5]),IC50 (purified lapine LBP [1]; [6]),IC50 (purified lapine LBP [1]; [5]),"Inhibition of LBP binding to LPS plate, in words (purified lapine LBP [1])",further results
"0-[2-amino-2-deoxy-N^2 -(3-hydroxytetradecanoyl)-beta-D-glucopyranosyl]-(1-6)-amino-2-deoxy-N^2 -(3-hydroxytetradecanoyl)-alpha-D-glucopyranose 1,4'-bisphosphate [DADG-BSA]",540 ng/mL,0.57 µM,–,–,–
"Nc1ncnc2c1ncn2[C@@H]1O[C@H](COP(=O)(O)O)[C@@H](O)[C@H]1O [AMP, adenosine-5'-monophosphate]",–,> 2800 µM,> 2880 µM,ineffective,–
"CCCCCCCCCCCCCC(=O)OCC(COP(=O)(O)O)OC(=O)CCCCCCCCCCCCC (stereo not drawn) [Dimyristoyl phosphatidic acid, dimyristoyl phosphatidic acid]",–,3.9 µM,4.22 µM,–,–
CCCCCCCCCCCCCC(=O)O[C@H](CCCCCCCCCCC)CC(=O)O[C@@H]1[C@@H](NC(=O)C[C@@H](CCCCCCCCCCC)OC(=O)CCCCCCCCCCC)[C@H](OC[C@H]2O[C@H](OP(=O)(O)O)[C@H](NC(=O)C[C@H](O)CCCCCCCCCCC)[C@@H](OC(=O)C[C@H](O)CCCCCCCCCCC)[C@@H]2O)O[C@H](CO)[C@H]1OP(=O)(O)O [J5 LA (synthetic)],–,0.02 µM,0.0222 µM,–,–
CCCCCCCCCCC[C@@H](O)CC(=O)N[C@H]1[C@@H](OP(=O)(O)O)O[C@H](CO)[C@@H](O)[C@@H]1OC(=O)C[C@H](O)CCCCCCCCCCC [Lipid x],–,3.9 µM,3.93 µM,–,Binding of LBP to the substance (purified lapine LBP [2]): only poorly
CCCCCCCCCCC[C@@H](O)CC(=O)N[C@H]1[C@H](OC[C@H]2O[C@H](OP(=O)(O)O)[C@H](NC(=O)C[C@H](O)CCCCCCCCCCC)[C@@H](OC(=O)C[C@H](O)CCCCCCCCCCC)[C@@H]2O)O[C@H](CO)[C@@H](OP(=O)(O)O)[C@@H]1OC(=O)C[C@H](O)CCCCCCCCCCC [precursor IVA],–,–,–,–,Binding of LBP to the substance (purified lapine LBP [2]): bind
Dextran sulfate,73 ng/mL,–,–,fairly good ligands,–
Heparin,"21,000 ng/ml",–,–,inhibitory only at high concentrations,–
Lipoteichoic acid,480 ng/mL,–,–,fairly good ligands,–
B1,–,–,–,–,Retardation of LPS binding to HDL / reconstitution of acute phase behavior in normal rabbit serum [3]: does not reconstitute the observed phenomena
B2,–,–,–,–,Bactericidal effect (Gram-negative bacteria): kills
B3,–,–,–,–,Binding affinities of LBP for LPS [4]: ~10^9 m^-1; Retardation of LPS binding to HDL / reconstitution of acute phase behavior in normal rabbit serum [3]: retards binding; Bactericidal effect (Gram-negative bacteria): no bactericidal effects
